According to patent publication US5593970A, “Heterocyclic anthracycline analogs” (priority 1994, dated 1997):
Read-outs that look alike come from different tables or passages of the source.

Key:
tumor cell lines = assay: NCI sulforhodamine B assay, all cell lines
NSC Lung [1] = assay: NCI assay, average per cancer type
Renal = assay: NCI assay, average per cancer type
CNS [2] = assay: NCI assay, average per cancer type
Melanoma [3] = assay: NCI assay, average per cancer type
solid tumors = assay: NCI assay, mean potency in solid tumors
Leukemia [4] = assay: NCI assay, average per cancer type
SW-620 = assay: NCI sulforhodamine B assay; assay type: cell-based, human; settings: for GI50: Homo sapiens, read-out: Log10 GI50 (converted)
Method: (§1) These assays were carried out at the Developmental Therapeutics Program, Division of Cancer Treatment, National Cancer Institute (Bethesda, Md., U.S.A.). The method consists of incubating varying concentrations of the drug with an inoculum of cells for two days. […] The 57 cell lines included two mouse leukemia lines (P388 parental and adriamycin resistant) and […] human cell lines.
(§2) It should be noted that the first two parameters (GI50 and TGI) relate to antiproliferation effects while the third one (LC50) indicates true cytotoxicity. A value of -4 or greater is considered to denote resistance (inactivity).

SF-295 = assay: NCI sulforhodamine B assay; assay type: cell-based, human
Method: as §1, §2

SNB-75 = assay: NCI sulforhodamine B assay; assay type: cell-based, human
Method: as §1, §2

SNB-19 = assay: NCI sulforhodamine B assay; assay type: cell-based, human; settings: for GI50: read-out: Log10 GI50 (converted)
Method: as §1, §2

Colon = settings: colon cancer cell lines, 48 h
NSC Lung [5] = settings: nsc lung cancer cell lines, 48 h
SC Lung = settings: sc lung cancer cell lines, 48 h
Melanoma [6] = settings: melanoma cell lines, 48 h
Leukemia [7] = settings: leukemia cell lines, 48 h
Ovarian = settings: ovarian cancer cell lines, 48 h
CNS [8] = settings: cns cancer cell lines, 48 h
BE-1 = assay: Soft agar colony formation disk diffusion assay; assay type: cell-based, human
Procedure, shortened: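 Antiproliferative activity is scored as the distance from the filter disk to the first colonies in a soft agar clonogenic culture. Each solid-tumour line is plated on its own dish, with compound dissolved in DMSO and diluted in water before loading on the disk.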

[9] = Homo sapiens, 48 h, read-out: Average LOG10 LC50
[10] = Homo sapiens, read-out: Average LOG10 GI50

Molecule: COC(=O)C1CC2=C(C(=O)c3c(cc4ccccc4c3O)C2=O)C(O[C@H]2C[C@H](NC(=O)C(F)(F)F)[C@H](O)[C@H](C)O2)O1 (mixture of isomers) [BCH-242, (1'S,1R,3S) and (1'S, 1S,3R)-Methyl[11-hydroxy-1-2',3',6'-trideoxy-3-trifluroacetamido-L-lyxohexopyranose)-5,12-dioxo-3,4,5,12-tetrahydroanthraceno[2,3-c]pyran-3-yl]formate]
- antiproliferative and cytotoxic activity in words (tumor cell lines): most of the cell lines of solid tumors ultimately show cytotoxicity to the drug
- CC50 (tumor cell lines; Homo sapiens, 48 h, read-out: Log10 LC50, Mean / MG-MID, all cell lines (converted)): 14500 nM
- IC100 (tumor cell lines; Homo sapiens, 48 h, read-out: Log10 TGI, Mean / MG-MID, all cell lines): 5.25 µM
- Log10 TGI, Mean / MG-MID (tumor cell lines; all cell lines): -5.52 log molar
- Log10 LC50, Mean / MG-MID (tumor cell lines; all cell lines, 2880 min): -5.09 log molar
- CC50 (NSC Lung [1]; [9]): 6170 nM
- GI50 (NSC Lung [1]; [10]): 977 nM
- CC50 (Renal; [9]): 6030 nM
- GI50 (Renal; [10]): 955 nM
- GI50 (CNS [2]; [10]): 1550 nM
- CC50 (Melanoma [3]; [9]): 3890 nM
- GI50 (Melanoma [3]; [10]): 437 nM
- GI50 (solid tumors; Homo sapiens, read-out: Average LOG10 GI50, Mean Potency in solid tumors): 661 nM
- Average LOG10 LC50, Mean Potency in solid tumors (solid tumors; solid tumors, 2880 min): -5.32 ± 0.20 log molar
- CC50 (Leukemia [4]; 48 h, read-out: Average LOG10 LC50): > 100000 nM
- GI50 (Leukemia [4]; read-out: Average LOG10 GI50): 316 nM
- GI50 (SW-620; SW-620, SW-620): > 100000 nM
- GI50 (SW-620; SW-620): 1320 nM
- Log10 LC50 (SW-620; SW-620, 2880 min): -5.19 log molar
- IC100 (SF-295; Homo sapiens, SF-295, 48 h, SF-295, read-out: Log10 TGI (converted)): 7.08 µM
- GI50 (SF-295; Homo sapiens, SF-295, SF-295, read-out: Log10 GI50 (converted)): 2400 nM
- Log10 GI50 (SF-295; SF-295): -5.70 log molar
- Log10 TGI (SF-295; SF-295): -5.41 log molar
- IC100 (SNB-75; Homo sapiens, SNB-75, 48 h, SNB-75, read-out: Log10 TGI (converted)): 8.71 µM
- CC50 (SNB-75; Homo sapiens, SNB-75, 48 h, read-out: Log10 LC50, SNB-75 (converted)): 30200 nM
- GI50 (SNB-75; Homo sapiens, SNB-75, SNB-75, read-out: Log10 GI50 (converted)): 2950 nM
- Log10 GI50 (SNB-75; SNB-75): -5.63 log molar
- Log10 TGI (SNB-75; SNB-75): -5.25 log molar
- Log10 LC50 (SNB-75; SNB-75, 2880 min): -4.73 log molar
- CC50 (SNB-19; Homo sapiens, SNB-19, 48 h, read-out: Log10 LC50, SNB-19 (converted)): 36300 nM
- GI50 (SNB-19; Homo sapiens, SNB-19, SNB-19): 3800 nM
- GI50 (SNB-19; Homo sapiens, SNB-19): 2290 nM
- Log10 LC50 (SNB-19; SNB-19, 2880 min): -4.65 log molar

Molecule: Methyl(11-hydroxy-5,12-dioxo-3,4,5,12-tetrahydroanthraceno[2,3-c]pyran-3-yl)ketone and Methyl(5-hydroxy-5,12-dioxo-3,4,5,12-tetrahydroanthraceno[2,3-c]pyran-3-yl)ketone [BCH-687]
- antiproliferative and cytotoxic activity in words (tumor cell lines): significant antiproliferative (GI50) and cytotoxic (LC50) activities in solid tumors
- Log10 GI50, Mean / MG-MID (tumor cell lines; all cell lines): -4.85 log molar
- Log10 TGI, Mean / MG-MID (tumor cell lines; all cell lines): -4.37 log molar
- Average LOG10 GI50 (NSC Lung [1]; NSC Lung): -4.81 ± 0.35 log molar
- Average LOG10 LC50 (Colon): -4.25(± 0.09) log molar
- Average LOG10 GI50 (Renal; Renal): -4.69 ± 0.23 log molar
- Average LOG10 LC50 (NSC Lung [5]): > -4.23(± 0.07) log molar
- Average LOG10 GI50 (CNS [2]; CNS): -4.59 ± 0.16 log molar
- Average LOG10 LC50 (SC Lung): > -4.18 log molar
- Average LOG10 LC50 (Melanoma [6]): -4.28(± 0.09) log molar
- Average LOG10 GI50 (Melanoma [3]; Melanoma): -5.05 ± 0.27 log molar
- Average LOG10 LC50 (Leukemia [7]): > -4.00 log molar
- Average LOG10 LC50 (Ovarian): -4.15(± 0.11) log molar
- Average LOG10 LC50 (CNS [8]): > -4.15 log molar
- zone of inhibition (BE-1; 10 μg/DISK): 85.0 ± 44.2 Zone Units
- zone of inhibition (BE-1; 100 μg/DISK): 162.6 ± 70.4 Zone Units
- Average LOG10 GI50, Mean Potency in solid tumors (solid tumors; solid tumors): -4.87 ± 0.17 log molar
- Average LOG10 GI50 (Leukemia [4]; Leukemia): -4.91 ± 0.12 log molar
